According to patent US20230072854A1, “PARAXANTHINE-BASED BIOACTIVE COMPOSITION AND METHOD OF USE THEREOF” (Ingenious Ingredients, LP, priority 2020, published 2023):

Test: Toxicity, LD50
Conditions: in vivo

Cn1cnc2c1c(=O)[nH]c(=O)n2C [theobromine, reference compound]
LD50: 1260 mg/kg
